Data taken from patent publication US11497819B2, “PSMA ligands for imaging and endoradiotherapy” (priority 2017, dated 2022).
“And” between values parts separate entries of the source, which are not always exact repeats. Equal values may be shown once. Read-outs that look alike come from different tables or passages of the source.

Key:
[1] = tested on: LNCaP cells; assay: Internalization into LNCaP cells, relative cellular uptake to ([^125I]I-BA)KuE; format: cell-based; settings: c = 1.0 nM ^177Lu-labeled inhibitor, 37° C., 60 min, corrected for non-specific binding (10 μM 2-PMPA), mean ± SD (n = 3)
Procedure: PSMA-positive LNCAP cells (300265; Cell Lines Service GmbH) were cultivated in Dulbecco modified Eagle medium/Nutrition Mixture F-12 (1/1) (DMEM-F12, Biochrom) supplemented with fetal calf serum (FCS) (10%, Biochrom) and kept at 37° C. in a humidified CO2 atmosphere (5%). One day (24 h±2 h) prior to all experiments with LNCaP cells, the cultivated cells were harvested using a mixture of trypsin/ethylendiaminetetraacetate (0.05%/0.02%) and PBS and centrifuged. After centrifugation, the supernatant was disposed and the cell pellet resuspended in culture medium. Afterwards, cells were counted with a hemocytometer (Neubauer) and seeded in 24-well plates.
Subsequent to the removal of the culture medium, the cells were washed once with DMEM-F12-solution (500 μL, 5% BSA) and left to equilibrate for at least 15 min at 37° C. in DMEM-F12-solution (200 μL, 5% BSA). Afterwards, each well was treated with either DMEM-F12-solution (25 μL, 5% BSA) or 2-PMPA-solution (25 μL, 100 μm) for blockade. […] The experiment was terminated by placing the 24-well plate on ice for 3 min and the consecutive removal of the medium. Each well was rinsed with HBSS (250 μL) and the fractions from these first two steps combined, representing the amount of free radioligand. Removal of surface bound activity was accomplished by incubation of the cells with ice-cold 2-PMPA-solution (250 μL, 10 μm in PBS) for 5 min and subsequent rinsing with ice-cold PBS (250 μL). The internalized activity was determined through incubation of the cells in NaOH (250 μL, 1.0 m) and the combination with the fraction of the subsequent washing step with again NaOH (250 μL, 1.0 m). Each experiment (control and blockade) was performed in triplicate for each time point. Free, surface bound and internalized activity was quantified in a γ-counter.

[2] = tested on: LNCaP cells; assay: Externalization kinetics / cell retention in LNCaP cells; format: cell-based; settings: for in vitro tumor cell retention: 60 min incubation
Procedure: FIG. 2: Externalization kinetics of selected ^177Lu-labeled PSMA inhibitors from LNCaP cells. […] Then, the supernatant was removed and once washed with DMEM-solution (5% BSA, 37° C.). Afterwards, either A) only DMEM-solution (5% BSA) or B) blockade DMEM-solution (5% BSA, 10 μm 2-PMPA) were added for replacement. The total cellular internalized activity at t=0 min was corrected for non-specific binding (10 μm 2-PMPA) and normalized to 100%. All data are expressed as mean±SD (n=3).
Externalization kinetics of the radiolabeled PSMA inhibitors were determined using LNCaP cells, which were similarly prepared as described for the internalization assay. After an initial cell-washing step with DMEM-F12-solution (5% BSA), the cells were left to recondition for at least 15 min at 37° C. Subsequently, the LNCaP cells were incubated with the respective radiolabeled peptide (25 μL, 10.0 nm) at 37° C. for 60 min in a total volume of 250 μL in each well. After 60 min, the supernatant with the unbound free fraction was removed and measured in a γ-counter for the calculation of total added radioactivity. An acid wash step was avoided to warrant enzyme integrity during the following externalization and recycling study. To determine the recycling rate, fresh DMEM-F12-solution (250 μL, 5% BSA) was given to the cells to allow re-internalization. In contrast, re-internalization was inhibited by addition of DMEM-F12-solution containing 2-PMPA (225 μL DMEM-F12 (5% BSA) and 25 μL of 100 μm 2-PMPA-solution (PBS)). The cells were then incubated for 0, 20, 40 and 60 min at 37° C. Consequently, the supernatant was removed and the cells were washed with ice-cold HBSS (250 μL). The combination of the supernatant and the volume of the concomitant washing step with HBSS (200 μL) account for externalized radioligand at the investigated time point. Further, the cells were then washed with ice-cold 2-PMPA HBSS solution (250 μL, 10 μm) twice, combined and thus represented the fraction of membrane-bound radioligand. The determination of the internalized fraction was achieved by lysis as described for the internalization assay with NaOH (250 μL, 1.0 m). The activities of free, externalized, membrane-bound and internalized radioligand were quantified in a γ-counter.

[3] = Lipophilicity, logP in n-octanol/PBS of radiolabeled PSMA inhibitors; format: physicochemical; settings: pH 7.4
Procedure: The radiolabeled PSMA inhibitor (0.5 to 1.0 MBq) dissolved in PBS (500 μL, pH=7.4), was added to n-octanol (500 μL) in a reaction vial (1.5 mL), which was rigorously vortexed for 3 min (n=6). For quantitative phase separation, the mixture was centrifuged at 6,000 g for 5 min (Biofuge 15, Heraus Sepatech, Osterode, Germany). The activity from samples of each phase (100 μL) were measured in a γ-counter to obtain the log P(o/w) value.

[4] = tested on: LNCaP-tumor xenograft; assay: Biodistribution in LNCaP-tumor xenograft bearing CB-17 SCID mice; format: in vivo
Procedure: All animal experiments were carried out in accordance with the general animal welfare regulations in Germany (Deutsches Tierschutzgesetz, approval #55.2-1-54-2532-71-13). For the tumor model, LNCaP cells (approx. 10^7 cells) were suspended in serum-free DMEM-F12 medium and Matrigel (1/1; v/v) (BD Biosciences, Germany) and inoculated onto the right shoulder of male, 6 to 8 weeks old CB-17 SCID mice (Charles River Laboratories, Sulzfeld, Germany). Animals were used after the tumor size reached 4 to 8 mm in diameter for experiments.

[5] = target: T1, HSA (Homo sapiens, UniProt P02768); assay: HSA binding on Chiralpak HSA column; format: in vitro ADME; settings: human, 0.5 mg/mL
T1 construct: purchased Daicel Chemical Industries / Chiral Technologies Europe (Illkirch, France)
T1 sequence (P02768 25-609): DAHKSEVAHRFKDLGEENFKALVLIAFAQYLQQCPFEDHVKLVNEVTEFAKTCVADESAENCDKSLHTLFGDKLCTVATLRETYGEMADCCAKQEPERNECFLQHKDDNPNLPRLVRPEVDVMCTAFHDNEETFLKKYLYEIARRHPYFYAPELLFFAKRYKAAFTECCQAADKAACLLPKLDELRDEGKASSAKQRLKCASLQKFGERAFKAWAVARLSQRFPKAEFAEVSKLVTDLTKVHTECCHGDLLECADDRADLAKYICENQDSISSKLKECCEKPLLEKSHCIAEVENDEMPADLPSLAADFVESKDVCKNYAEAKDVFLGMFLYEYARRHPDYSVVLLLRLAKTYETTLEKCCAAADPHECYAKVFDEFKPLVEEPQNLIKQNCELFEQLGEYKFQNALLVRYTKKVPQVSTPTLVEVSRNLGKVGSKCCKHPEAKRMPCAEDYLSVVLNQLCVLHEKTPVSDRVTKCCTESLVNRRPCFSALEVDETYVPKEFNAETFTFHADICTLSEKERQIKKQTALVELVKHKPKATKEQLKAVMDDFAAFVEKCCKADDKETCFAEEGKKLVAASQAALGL
Procedure: HSA binding experiments were performed as previously described. […] For each run, 10 μL of the solution containing the inhibitor was injected into the RP-HPLC system and the retention time measured. […] Non-linear regression was established with OriginPro 2016G.

[6] = 1 h p.i., ^177Lu-labeled, n = 4
[7] = 1 h p.i., ^177Lu-labeled, n = 4, listed as [^177Lu]PSMA I&T
[8] = 24 h p.i., ^177Lu-labeled, n = 4
[9] = male, CB-17 SCID, mouse, in vivo, 1 h
[10] = male, CB-17 SCID, mouse, in vivo, 24 h

Structure (SMILES): O=C(O)CC[C@H](NC(=O)N[C@@H](CCCCNC(=O)CCCCCCC(=O)NCCCC[C@@H](NC(=O)[C@@H](Cc1ccccc1)NC(=O)[C@@H](Cc1ccc(O)c(I)c1)NC(=O)CCC(C(=O)O)N1CCN(CC(=O)O)CCN(CC(=O)O)CCN(CC(=O)O)CC1)C(=O)O)C(=O)O)C(=O)O (stereo partly shown) [PSMA I&T, DOTAGA-y(3-I)fk(Sub-KuE), reference compound]
- Internalization ([1]; listed as [^177Lu]PSMA I&T): 75.5±1.6%
- Internalization ([1]; listed as [^nat/177Lu]PSMA I&T): 75.5 ± 1.6%
- in vitro tumor cell retention ([2]; ^177Lu-labeled): 62.8±0.4%
- logP ([3]; distribution coefficient in n-octanol/PBS, radiolabeled inhibitor, mean ± SD (n = 6), read-out: logP): -4.12 ± 0.11
- adrenal gland [4, 6]: 6.25 ± 2.59 % ID/g
- blood [4, 6]: 0.37 ± 0.10 % ID/g
- bone [4, 6]: 0.14 ± 0.04 % ID/g
- brain [4, 6]: 0.03 ± 0.01 % ID/g
- heart [4, 6]: 0.58 ± 0.15 % ID/g
- intestine [4, 6]: 0.59 ± 0.50 % ID/g
- liver [4, 6]: 0.37 ± 0.10 % ID/g
- lung [4, 6]: 1.32 ± 0.45 % ID/g
- muscle [4, 6]: 0.18 ± 0.07 % ID/g
- pancreas [4, 6]: 1.30 ± 1.39 % ID/g
- spleen [4, 6]: 13.8 ± 4.59 % ID/g
- stomach [4, 6]: 0.29 ± 0.06 % ID/g
- kidney [4, 7]: 128.9±10.7 % ID/g and 128.90 ± 10.74 % ID/g
- tumor [4, 7]: 4.7±1.0 % ID/g and 4.69±0.95 % ID/g
- adrenal g. [4, 8]: 1.06 ± 0.24 % ID/g
- blood [4, 8]: 0.012 ± 0.01 % ID/g
- bone [4, 8]: 0.01 ± 0.01 % ID/g
- brain [4, 8]: 0.02 ± 0.01 % ID/g
- heart [4, 8]: 0.05 ± 0.03 % ID/g
- intestine [4, 8]: 0.12 ± 0.06 % ID/g
- liver [4, 8]: 0.05 ± 0.01 % ID/g
- lung [4, 8]: 0.16 ± 0.03 % ID/g
- muscle [4, 8]: 0.01 ± 0.01 % ID/g
- pancreas [4, 8]: 0.05 ± 0.02 % ID/g
- spleen [4, 8]: 1.94 ± 1.01 % ID/g
- stomach [4, 8]: 0.05 ± 0.02 % ID/g
- tumor ([4]; 24 h p.i., ^177Lu-labeled, n = 4, listed as [^177Lu]PSMA I&T): 4.06±1.12 % ID/g

Structure (SMILES): O=C(O)CC[C@H](NC(=O)N[C@@H](CCC(=O)N[C@H](CCCNC(=O)C[C@@H](NC(=O)c1cc(C(=O)O)cc(C(=O)O)c1)C(=O)NCCCC[C@@H](NC(=O)[C@@H](Cc1ccc2ccccc2c1)NC(=O)[C@@H](Cc1ccc(O)cc1)NC(=O)[C@H](CNC(=O)c1cc(C(=O)O)cc(C(=O)O)c1)NC(=O)CCC(C(=O)O)N1CCN(CC(=O)O)CCN(CC(=O)O)CCN(CC(=O)O)CC1)C(=O)O)C(=O)O)C(=O)O)C(=O)O (stereo partly shown) [PSMA-66, DOTAGA-Dap(TMA)y-2-nal-k(d[N^5-orn-C^4-EuE]-TMA)]
- Internalization ([1]; listed as [^177Lu]PSMA-66): 297.8±2.0% and 297.8%
- Internalization ([1]; listed as [^nat/177Lu]PSMA-66): 297.8 ± 2.0%
- in vitro tumor cell retention ([2]; ^177Lu-labeled): 90.1±3.5%
- intracellular activity in the tumor cells ([2]; after 1 h, ^177Lu-labeled): highest intracellular activity in the tumor cells after 1 h
- intracellular clearance ([2]; re-internalization blocked with 100 μM 2-PMPA-solution): lower than for all other investigated compounds
- logP [3]: -4.25 ± 0.14
- HSA (albumin binding) [5]: 64.4%
- adrenal gland [4, 9]: 0.78 ± 0.07 % ID/g
- blood [4, 9]: 0.50 ± 0.03 % ID/g
- bone [4, 9]: 0.37 ± 0.13 % ID/g
- brain [4, 9]: 0.02 ± 0.01 % ID/g
- heart [4, 9]: 0.49 ± 0.06 % ID/g
- intestine [4, 9]: 0.21 ± 0.03 % ID/g
- liver [4, 9]: 0.32 ± 0.02 % ID/g
- lung [4, 9]: 0.62 ± 0.12 % ID/g
- muscle [4, 9]: 0.19 ± 0.07 % ID/g
- pancreas [4, 9]: 0.15 ± 0.04 % ID/g
- spleen [4, 9]: 1.93 ± 0.04 % ID/g
- stomach [4, 9]: 0.28 ± 0.04 % ID/g
- tumor/blood [4, 9]: 20.0
- tumor/kidney [4, 9]: 0.09
- tumor/muscle [4, 9]: 52.6
- adrenal g. [4, 10]: 0.09 ± 0.09 % ID/g
- blood [4, 10]: 0.003 ± 0.001 % ID/g
- bone [4, 10]: 0.02 ± 0.01 % ID/g
- brain [4, 10]: 0.01 ± 0.001 % ID/g
- heart [4, 10]: 0.03 ± 0.007 % ID/g
- intestine [4, 10]: 0.11 ± 0.07 % ID/g
- kidney [4, 10]: 20.92 ± 2.51 % ID/g
- liver [4, 10]: 0.14 ± 0.02 % ID/g
- lung [4, 10]: 0.03 ± 0.007 % ID/g
- muscle [4, 10]: 0.02 ± 0.006 % ID/g
- pancreas [4, 10]: 0.02 ± 0.007 % ID/g
- spleen [4, 10]: 0.09 ± 0.02 % ID/g
- stomach [4, 10]: 0.07 ± 0.03 % ID/g
- t/blood [4, 10]: 1910.0
- t/kidney [4, 10]: 0.3
- t/liver [4, 10]: 40.9
- t/muscle [4, 10]: 286.5
